The record followed here is PMC3025571 (Nucleic Acids Research, 2010).

As a reminder, the IC50 is the concentration that gives 50% inhibition.

Each structure is given as a SMILES string. Read-outs that look alike come from different tables or passages of the source.

The target in the assay is human FEN1 (Homo sapiens, UniProt P39748). As to the kind of experiment: Kinetic fluorogenic. In kind it is biochemical.
Chain of human FEN1 (P39748 whole entry): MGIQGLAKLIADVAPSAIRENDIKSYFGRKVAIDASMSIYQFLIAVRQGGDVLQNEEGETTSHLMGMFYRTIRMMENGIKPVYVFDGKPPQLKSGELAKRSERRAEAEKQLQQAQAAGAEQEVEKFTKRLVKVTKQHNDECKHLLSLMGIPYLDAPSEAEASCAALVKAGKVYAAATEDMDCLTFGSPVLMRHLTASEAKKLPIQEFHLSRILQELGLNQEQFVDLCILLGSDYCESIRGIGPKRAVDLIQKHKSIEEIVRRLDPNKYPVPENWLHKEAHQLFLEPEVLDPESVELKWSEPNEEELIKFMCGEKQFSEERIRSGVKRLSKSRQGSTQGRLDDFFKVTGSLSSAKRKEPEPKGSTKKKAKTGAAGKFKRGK

With `C[S+](C)[O-]` [DMSO, Dimethyl sulfoxide], for the setting “concentrations up to 0.67%, data not shown, assay format not specified”, the “inhibition of FEN1” value is “not inhibit”.
On to `O=C(O)C1=CC(=C(c2ccc(O)c(C(=O)O)c2)c2ccc(O)c(C(=O)O)c2)C=CC1=O` [ATA, aurintricarboxylic acid], for which inhibition (average IC50, average of the fluorogenic and AlphaScreen assays) was half-maximal at 590 nM (IC50).
Turning to `O=C(O)c1cc[c]([Sb](=[O])([OH])[OH])cc1[N+](=O)[O-]` [NSC-13755], the half-inhibitory concentration (IC50) (read-out: average IC50, average of the fluorogenic and AlphaScreen assays) was found to be 930 nM.
